Read-outs that look alike come from different tables or passages of the source.
Tests used:
[1] = biological target: T1, Human Tryptophan 2,3-dioxygenase (TDO) (Homo sapiens, UniProt P48775); assay: Human TDO enzymatic assay (kynurenine level); format: biochemical
T1 construct: His tag (N); made in house; host or cells: E. coli
Summary of the method: (§1)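 Kynurenine formed is measured after TCA quench and 50 °C hydrolysis, with % inhibition against full-reaction and no-enzyme controls (5% DMSO). IDO: 6 nM enzyme, 10 μM L-Trp, 5 μM methylene blue, 20 min; TDO: 1 nM, 350 μM L-Trp, 0.4 μM methylene blue, 70 min; both pH 6.5, room temp, E. coli-expressed His-tagged.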

[2] = biological target: T2, human TDO (TDO-expressing HEK293 cells) (Homo sapiens, UniProt P48775); assay: Cell based kynurenine assay, TDO-expressing HEK293 cell clones
T2 construct: expressed in transfected cells
T2 sequence (P48775 whole entry): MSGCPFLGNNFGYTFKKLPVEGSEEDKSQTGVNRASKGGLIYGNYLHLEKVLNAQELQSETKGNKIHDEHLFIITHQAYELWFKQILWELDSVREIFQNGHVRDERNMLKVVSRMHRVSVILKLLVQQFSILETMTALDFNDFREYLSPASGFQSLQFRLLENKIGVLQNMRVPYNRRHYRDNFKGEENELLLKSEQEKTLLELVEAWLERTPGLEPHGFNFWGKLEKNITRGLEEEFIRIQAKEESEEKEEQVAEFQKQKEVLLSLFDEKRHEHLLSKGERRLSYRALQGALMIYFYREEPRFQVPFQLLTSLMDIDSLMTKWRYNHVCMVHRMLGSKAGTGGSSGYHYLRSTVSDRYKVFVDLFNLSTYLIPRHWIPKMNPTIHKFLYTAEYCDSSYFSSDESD
Summary of the method: (§2)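 Kynurenine in culture supernatant read after 24 h compound exposure of HEK293 cells stably expressing human IDO1 or TDO. IC50 from nonlinear regression of % inhibition relative to 0.2% DMSO cell (high) and media-only (low) controls.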

[3] = biological target: T3, human IDO (IDO1-expressing HEK293 cells) (Homo sapiens, UniProt P14902); assay: Cell based kynurenine assay, IDO1-expressing HEK293 cell clones
T3 construct: expressed in transfected cells
T3 sequence (P14902 whole entry): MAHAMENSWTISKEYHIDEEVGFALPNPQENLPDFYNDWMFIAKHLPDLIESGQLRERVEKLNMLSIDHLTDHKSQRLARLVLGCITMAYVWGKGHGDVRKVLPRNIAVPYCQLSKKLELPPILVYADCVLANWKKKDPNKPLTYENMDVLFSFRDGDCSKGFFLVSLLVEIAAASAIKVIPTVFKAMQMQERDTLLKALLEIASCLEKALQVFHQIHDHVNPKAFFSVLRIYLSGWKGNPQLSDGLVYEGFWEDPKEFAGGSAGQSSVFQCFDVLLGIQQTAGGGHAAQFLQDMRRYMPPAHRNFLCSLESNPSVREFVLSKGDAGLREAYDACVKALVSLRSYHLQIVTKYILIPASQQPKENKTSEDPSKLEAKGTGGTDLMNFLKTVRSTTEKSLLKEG
Summary of the method: as §2

[4] = biological target: T4, Human Indoleamine 2,3-dioxygenase (IDO) (Homo sapiens, UniProt P14902); assay: Human IDO enzymatic assay (kynurenine level); format: biochemical
T4 construct: His tag (N); made in house; host or cells: E. coli
T4 sequence (P14902 whole entry): as above
Summary of the method: as §1

[5] = 1 nM TDO, 350 μM L-Trp, geometric mean, read-out: TDO GMean: IC50 (μM) (Biochemical Assay)
[6] = TDO-expressing HEK293 cells, 24 hours, geometric mean, read-out: HEK293 TDO Kynurenine GMean IC50 (μM) (Cellular Assay)
[7] = IDO1-expressing HEK293 cells, 24 hours, geometric mean, read-out: HEK293 IDO1 Kynurenine GMean IC50 (μM) (Cellular Assay)
[8] = 6 nM IDO, 10 μM L-Trp, geometric mean, read-out: IDO1 GMean: IC50 (μM) (Biochemical Assay)
[9] = TDO-expressing HEK293 cells, 24 hours incubation, geometric mean, read-out: HEK293 TDO Kynurenine GMean IC50 (μM) (Cellular Assay)
[10] = IDO1-expressing HEK293 cells, 24 hours incubation, geometric mean, read-out: HEK293 IDO1 Kynurenine GMean IC50 (μM) (Cellular Assay)

T1 sequence (P48775 whole entry): as the sequence (P48775 whole entry) above

| Structure (SMILES) | IC50 [1, 5] [µM] | IC50 [2, 6] [µM] | IC50 [3, 7] [µM] | IC50 [4, 8] [µM] | IC50 [2, 9] [µM] | IC50 [3, 10] [µM] | IC50 ([1]; biochemical assay, comparative examples, 4,6 versus 5,7 indazole, read-out: TDO) [µM] | IC50 ([2]; cellular assay, HEK293, 24 hours, comparative examples, read-out: hTDO) [µM] | IC50 ([3]; cellular assay, HEK293, 24 hours, comparative examples, read-out: hIDO1) [µM] | IC50 ([4]; biochemical assay, comparative examples, 4,6 versus 5,7 indazole, read-out: IDO1) [µM] |
| --- | --- | --- | --- | --- | --- | --- | --- | --- | --- | --- |
| Cc1cc(C(O)C2(C)CCCCC2)c2[nH]ncc2c1 (stereo not shown) [Compound P-0014, (5-methyl-1H-indazol-7-yl)(1-methylcyclohexyl)methanol] | 0.0001 to 10 | – | – | 0.0001 to 10 | 0.0001 to 10 | 0.0001 to 10 | – | – | – | – |
| CC(C)(C1CCOCC1)C(O)c1cc(Cl)cc2cn[nH]c12 (stereo not shown) [drawing 816] | – | – | – | – | – | – | 1.18 | 2.63 | 0.08 | 0.11 |
| CNC(=O)N1CCC(C(C)(C)C(O)c2cc(Cl)cc3[nH]ncc23)CC1 (stereo not shown) [Compound P-0169, 4-(1-(6-chloro-1H-indazol-4-yl)-1-hydroxy-2-methylpropan-2-yl)-N-methylpiperidine-1-carboxamide] | 0.0001 to 10 | – | – | 0.0001 to 10 | 0.0001 to 10 | 0.0001 to 10 | – | – | – | – |
| CC1(C(O)c2c(F)c(Cl)cc3cn[nH]c23)CCCCC1 (stereo not shown) [Compound P-0052, (5-chloro-6-fluoro-1H-indazol-7-yl)(1-methylcyclohexyl)methanol] | 0.0001 to 10 | – | – | 0.0001 to 10 | 0.0001 to 10 | 0.0001 to 10 | – | – | – | – |
| CC(C)(C)OC(=O)N1CCC(CC(O)c2cccc3cncn23)CC1 (stereo not drawn) [Compound P-0085, tert-butyl 4-(2-hydroxy-2-(imidazo[1,5-a]pyridin-5-yl)ethyl)piperidine-l-carboxylate] | 0.0001 to 10 | – | – | 0.0001 to 10 | > 10 | > 10 | – | – | – | – |
| CCNC(=O)N1CCC(C(C)(C)C(O)c2cc(Cl)cc3cn[nH]c23)CC1 (stereo not shown) [Compound P-0399, 4-(1-(5-chloro-1H-indazol-7-yl)-1-hydroxy-2-methylpropan-2-yl)-N-ethylpiperidine-1-carboxamide] | 0.0001 to 10 | – | – | 0.0001 to 10 | 0.0001 to 10 | 0.0001 to 10 | – | – | – | – |
| CCNS(=O)(=O)N1CCC(C(F)(F)C(O)c2cc(Cl)cc3cn[nH]c23)CC1 (stereo not shown) [Compound P-0331, 4-(2-(5-chloro-1H-indazol-7-yl)-1,1-difluoro-2-hydroxyethyl)-N-ethylpiperidine-1-sulfonamide] | 0.0001 to 10 | – | – | 0.0001 to 10 | 0.0001 to 10 | 0.0001 to 10 | – | – | – | – |
| CC(=O)N1C[C@H]2CC[C@@H](C1)[C@H]2C(F)(F)C(O)c1cc(Cl)cc2cn[nH]c12 (stereo partly drawn) [Compound P-0302, 1-((1R,5S,8s)-8-(2-(5-chloro-1H-indazol-7-yl)-1,1-difluoro-2-hydroxyethyl)-3-azabicyclo[3.2.1]octan-3-yl)ethan-1-one] | 0.0001 to 10 | – | – | 0.0001 to 10 | 0.0001 to 10 | 0.0001 to 10 | – | – | – | – |
| COC(=O)N1CCC(C2(C(O)c3cc(Cl)cc4cn[nH]c34)CC2)CC1 (stereo not shown) [Compound P-0155, methyl 4-(1-((5-chloro-1H-indazol-7-yl)(hydroxy)methyl)cyclopropyl)piperidine-1-carboxylate] | 0.0001 to 10 | – | – | 0.0001 to 10 | 0.0001 to 10 | 0.0001 to 10 | – | – | – | – |
| CC(C)(C1CCN(S(C)(=O)=O)CC1)[C@H](O)c1c(F)c(Cl)cc2cn[nH]c12 [Compound P-0515, (S)-1-(5-chloro-6-fluoro-1H-indazol-7-yl)-2-methyl-2-(1-(methylsulfonyl)piperidin-4-yl) propan-1-ol] | 0.0001 to 10 | 0.0001 to 10 | 0.0001 to 10 | 0.0001 to 10 | – | – | – | – | – | – |
| CS(=O)(=O)N1CCC(C(F)(F)C(O)c2c(F)c(Cl)cc3cn[nH]c23)CC1 (stereo not shown) [Compound P-0288, 1-(5-chloro-6-fluoro-1H-indazol-7-yl)-2,2-difluoro-2-(1-(methylsulfonyl)piperidin-4-yl)ethan-1-ol] | 0.0001 to 10 | – | – | 0.0001 to 10 | 0.0001 to 10 | 0.0001 to 10 | – | – | – | – |
| OC(c1cc(Cl)cc2cn[nH]c12)C1(F)CCCCC1 (stereo not shown) [Compound P-0004, (5-chloro-1H-indazol-7-yl)(1-fluorocyclohexyl)methanol] | 0.0001 to 10 | – | – | 0.0001 to 10 | 0.0001 to 10 | 0.0001 to 10 | – | – | – | – |
| CC(C)(C1CCN(C(=O)C2C(C)(C)C2(C)C)CC1)[C@H](O)c1cc(Cl)cc2cn[nH]c12 [Compound P-0539, (S)-(4-(1-(5-chloro-1H-indazol-7-yl)-1-hydroxy-2-methylpropan-2-yl)piperidin-1-yl)(2,2,3,3-tetramethylcyclopropyl) methanone] | 0.0001 to 10 | 0.0001 to 10 | 0.0001 to 10 | 0.0001 to 10 | – | – | – | – | – | – |
| CC1(C)CC(C(O)c2cc(Cl)cc3cn[nH]c23)C1 (stereo not shown) [Compound P-0196, (5-chloro-1H-indazol-7-yl)(3,3-dimethylcyclobutyl)methanol] | 0.0001 to 10 | – | – | 0.0001 to 10 | 0.0001 to 10 | 0.0001 to 10 | – | – | – | – |
| O=C(NCC1COC1)N1CCC(C(F)(F)C(O)c2cc(Cl)cc3cn[nH]c23)CC1 (stereo not shown) [Compound P-0482, 4-(2-(5-chloro-1H-indazol-7-yl)-1,1-difluoro-2-hydroxyethyl)-N-(oxetan-3-ylmethyl)piperidine-1-carboxamide] | 0.0001 to 10 | 0.0001 to 10 | 0.0001 to 10 | 0.0001 to 10 | – | – | – | – | – | – |
| OC(c1cccc2cncn12)C1CCC(F)(F)CC1 (stereo not shown) [Compound P-0081, (4,4-difluorocyclohexyl)(imidazo[1,5-a]pyridin-5-yl)methanol] | 0.0001 to 10 | – | – | 0.0001 to 10 | > 10 | > 10 | – | – | – | – |
| CC(=O)N1CCC(C(C)(C)[C@H](O)c2cc(Cl)cc3cn[nH]c23)CC1 [Compound P-0542, (S)-1-(4-(1-(5-chloro-1H-indazol-7-yl)-1-hydroxy-2-methylpropan-2-yl)piperidin-1-yl)ethan-1-one] | 0.0001 to 10 | 0.0001 to 10 | 0.0001 to 10 | 0.0001 to 10 | – | – | – | – | – | – |

Now from value to molecule:

| IC50 [1, 5] [µM] | IC50 [2, 6] [µM] | IC50 [3, 7] [µM] | IC50 [4, 8] [µM] | IC50 [2, 9] [µM] | IC50 [3, 10] [µM] | IC50 ([1]; biochemical assay, comparative examples, 4,6 versus 5,7 indazole, read-out: TDO) [µM] | IC50 ([2]; cellular assay, HEK293, 24 hours, comparative examples, read-out: hTDO) [µM] | IC50 ([3]; cellular assay, HEK293, 24 hours, comparative examples, read-out: hIDO1) [µM] | IC50 ([4]; biochemical assay, comparative examples, 4,6 versus 5,7 indazole, read-out: IDO1) [µM] | Structure (SMILES) |
| --- | --- | --- | --- | --- | --- | --- | --- | --- | --- | --- |
| 0.0001 to 10 | 0.0001 to 10 | 0.0001 to 10 | 0.0001 to 10 | – | – | – | – | – | – | CNC(=O)N1[C@@H]2CC[C@H]1C[C@@H](C(C)(C)C(O)c1cc(Cl)cc3cn[nH]c13)C2 (stereo partly drawn) [Compound P-0442, (1R,3r,5S)-3-(1-(5-chloro-1H-indazol-7-yl)-1-hydroxy-2-methylpropan-2-yl)-N-methyl-8-azabicyclo[3.2.1] octane-8-carboxamide] |
| 0.0001 to 10 | – | – | 0.0001 to 10 | 0.0001 to 10 | 0.0001 to 10 | – | – | – | – | CC(C)(C)OC(=O)N1CCC(C(C)(C)[C@H](O)c2cc(Cl)cc3cn[nH]c23)CC1 [Compound P-0337, tert-butyl (S)-4-(1-(5-chloro-1H-indazol-7-yl)-1-hydroxy-2-methylpropan-2-yl)piperidine-1-carboxylate] |
| 0.0001 to 10 | 0.0001 to 10 | 0.0001 to 10 | 0.0001 to 10 | – | – | – | – | – | – | COCCNC(=O)N1CCC(C(C)(C)C(O)c2c(F)c(Cl)cc3cn[nH]c23)CC1 (stereo not shown) [Compound P-0419, 4-(1-(5-chloro-6-fluoro-1H-indazol-7-yl)-1-hydroxy-2-methylpropan-2-yl)-N-(2-methoxyethyl) piperidine-1-carboxamide] |
| 0.0001 to 10 | 0.0001 to 10 | 0.0001 to 10 | 0.0001 to 10 | – | – | – | – | – | – | CC(C)(C1CCN(C(=O)NC[C@@H]2CCCO2)CC1)[C@H](O)c1cc(Cl)cc2cn[nH]c12 [Compound P-0566, 4-((S)-1-(5-chloro-1H-indazol-7-yl)-1-hydroxy-2-methylpropan-2-yl)-N-(((S)-tetrahydrofuran-2-yl)methyl)piperidine-1-carboxamide] |
| 0.0001 to 10 | 0.0001 to 10 | 0.0001 to 10 | 0.0001 to 10 | – | – | – | – | – | – | CCC(=O)N1CCC(C(C)(C)[C@@H](O)c2cc(Cl)cc3cn[nH]c23)CC1 [Compound P-0423, (R)-1-(4-(1-(5-chloro-1H-indazol-7-yl)-1-hydroxy-2-methylpropan-2-yl)piperidin-1-yl)propan-1-one] |
| 0.0001 to 10 | – | – | 0.0001 to 10 | 0.0001 to 10 | 0.0001 to 10 | – | – | – | – | CS(=O)(=O)N1CCC2(CC1)CC(O)(c1cc(Cl)cc3cn[nH]c13)C2 [Compound P-0034, 2-(5-chloro-1H-indazol-7-yl)-7-(methylsulfonyl)-7-azaspiro[3.5]nonan-2-ol] |
| 0.0001 to 10 | – | – | 0.0001 to 10 | 0.0001 to 10 | 0.0001 to 10 | – | – | – | – | CCCNC(=O)N1CCC(C(C)(C)C(O)c2cc(Cl)cc3cn[nH]c23)CC1 (stereo not shown) [Compound P-0355, 4-(1-(5-chloro-1H-indazol-7-yl)-1-hydroxy-2-methylpropan-2-yl)-N-propylpiperidine-1-carboxamide] |
| 0.0001 to 10 | 0.0001 to 10 | 0.0001 to 10 | 0.0001 to 10 | – | – | – | – | – | – | CC(C)(C1CCN(C(=O)NC[C@H]2CCCO2)CC1)[C@H](O)c1cc(Cl)cc2cn[nH]c12 [Compound P-0565, 4-((S)-1-(5-chloro-1H-indazol-7-yl)-1-hydroxy-2-methylpropan-2-yl)-N-(((R)-tetrahydrofuran-2-yl)methyl)piperidine-1-carboxamide] |

Source: patent US10508085B2, “Compounds and methods for IDO and TDO modulation, and indications therefor” (Plexxikon Inc., priority 2016, dated 2019)
